Like-named read-outs stand apart in the source and are kept apart here.
Columns and labels:
[1] = tested on: Key Broadleaf Weed and Crop Species; experiment: Post-emergent Test II herbicidal activity (Table 15); assay type: in vivo; conditions: post-emergence, 336 h, 14 d; for pest or weed control at 35 g/ha: 35 g ai/ha; for pest or weed control at 70 g/ha: 70 g ai/ha; for pest or weed control at 140 g/ha: 140 g ai/ha
Procedure, shortened: (§1)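 Herbicidal effect scored as percent visual injury, 14 d after post-emergent application. Spray solutions contained acetone, DMSO, isopropyl alcohol, crop oil concentrate and surfactant, applied at 187 L/ha to young plants (1-2 true leaves).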

[2] = tested on: Key Grass and Sedge Weeds as well as Grass Crops; experiment: Post-emergent Test II herbicidal activity (Table 16); assay type: in vivo; conditions: post-emergence, 336 h, 14 days after application; for pest or weed control at 35 g/ha: 35 g ai/ha; for pest or weed control at 70 g/ha: 70 g ai/ha; for pest or weed control at 140 g/ha: 140 g ai/ha
Procedure, shortened: as §1

[3] = Abutilon theophrasti, velvetleaf (Abutilon theophrasti), read-out: Visual Growth Reduction (%) 14 Days After Application, ABUTH
[4] = Amaranthus retroflexus, redroot pigweed (Amaranthus retroflexus), read-out: Visual Growth Reduction (%) 14 Days After Application, AMARE
[5] = Brassica napus, oilseed rape, canola (Brassica napus), read-out: Visual Growth Reduction (%) 14 Days After Application, BRSNN
[6] = Chenopodium album, lambsquarters (Chenopodium album), read-out: Visual Growth Reduction (%) 14 Days After Application, CHEAL
[7] = Euphorbia heterophylla, wild poinsettia (Euphorbia heterophylla), read-out: Visual Growth Reduction (%) 14 Days After Application, EPHHL
[8] = Helianthus annuus, sunflower (Helianthus annuus), read-out: Visual Growth Reduction (%) 14 Days After Application, HELAN
[9] = Cyperus esculentus, yellow nutsedge (Cyperus esculentus), read-out: Visual Growth Reduction (%) 14 Days After Application CYPES
[10] = Echinochloa crus-galli, barnyardgrass (Echinochloa crus-galli), read-out: Visual Growth Reduction (%) 14 Days After Application ECHCG
[11] = Oryza sativa, rice (Oryza sativa), read-out: Visual Growth Reduction (%) 14 Days After Application ORYSA
[12] = Setaria faberi, giant foxtail (Setaria faberi), read-out: Visual Growth Reduction (%) 14 Days After Application SETFA
[13] = Triticum aestivum, wheat, spring (Triticum aestivum), read-out: Visual Growth Reduction (%) 14 Days After Application TRZAS
[14] = Zea mays, maize, corn (Zea mays), read-out: Visual Growth Reduction (%) 14 Days After Application ZEAMX

Compound `COC(=O)c1nc(-c2ccc3cn[nH]c3c2)c(F)c(N)c1Cl` [Compound 4.05] has a pest or weed control at 35 g/ha [1, 3] of 0 to 29%, a pest or weed control at 70 g/ha [1, 3] of 0 to 29% and a pest or weed control at 140 g/ha [1, 3] of 45 to 59%. It also gave a pest or weed control at 35 g/ha [1, 4] of 0 to 29%, a pest or weed control at 70 g/ha [1, 4] of 95 to 100% and a pest or weed control at 140 g/ha [1, 4] of 95 to 100%. The pest or weed control at 35 g/ha [1, 5] was 0 to 29%, the pest or weed control at 70 g/ha [1, 5] was 0 to 29% and the pest or weed control at 140 g/ha [1, 5] was 45 to 59%. The pest or weed control at 35 g/ha [1, 6] was 85 to 94%, the pest or weed control at 70 g/ha [1, 6] was 85 to 94% and the pest or weed control at 140 g/ha [1, 6] was 95 to 100%. The pest or weed control at 35 g/ha [1, 7] was 60 to 74%, the pest or weed control at 70 g/ha [1, 7] was 95 to 100% and the pest or weed control at 140 g/ha [1, 7] was 95 to 100%. The pest or weed control at 35 g/ha [1, 8] was 60 to 74%, the pest or weed control at 70 g/ha [1, 8] was 60 to 74% and the pest or weed control at 140 g/ha [1, 8] was 95 to 100%. It also gave a pest or weed control at 35 g/ha [2, 9] of 0 to 29%, a pest or weed control at 70 g/ha [2, 9] of 0 to 29% and a pest or weed control at 140 g/ha [2, 9] of 0 to 29%. For the same compound, the pest or weed control at 140 g/ha [2, 10] was 85 to 94%, the pest or weed control at 35 g/ha [2, 11] was 0 to 29% and the pest or weed control at 70 g/ha [2, 11] was 0 to 29%. The pest or weed control at 140 g/ha [2, 11] was 0 to 29%, the pest or weed control at 140 g/ha [2, 12] was 95 to 100% and the pest or weed control at 35 g/ha [2, 13] was 0 to 29%. It also gave a pest or weed control at 70 g/ha [2, 13] of 0 to 29%, a pest or weed control at 140 g/ha [2, 13] of 0 to 29% and a pest or weed control at 35 g/ha [2, 14] of 0 to 29%. It also gave a pest or weed control at 70 g/ha [2, 14] of 60 to 74%, a pest or weed control at 140 g/ha [2, 14] of 60 to 74% and a melting point of 185 to 187 °C.
`Nc1c(F)c(-c2ccc3cn[nH]c3c2)nc(C(=O)O)c1Cl` [Compound 4.06] showed a pest or weed control at 35 g/ha [1, 3] of 0 to 29%, a pest or weed control at 70 g/ha [1, 3] of 0 to 29% and a pest or weed control at 140 g/ha [1, 3] of 0 to 29%. It also gave a pest or weed control at 35 g/ha [1, 4] of 75 to 84%, a pest or weed control at 70 g/ha [1, 4] of 95 to 100% and a pest or weed control at 140 g/ha [1, 4] of 95 to 100%. For the same compound, the pest or weed control at 35 g/ha [1, 5] was 60 to 74%, the pest or weed control at 70 g/ha [1, 5] was 75 to 84% and the pest or weed control at 140 g/ha [1, 5] was 85 to 94%. The pest or weed control at 35 g/ha [1, 6] was 0 to 29%, the pest or weed control at 70 g/ha [1, 6] was 45 to 59% and the pest or weed control at 140 g/ha [1, 6] was 95 to 100%. The pest or weed control at 35 g/ha [1, 7] was 45 to 59%, the pest or weed control at 70 g/ha [1, 7] was 60 to 74% and the pest or weed control at 140 g/ha [1, 7] was 85 to 94%. For the same compound, the pest or weed control at 35 g/ha [1, 8] was 45 to 59%, the pest or weed control at 70 g/ha [1, 8] was 60 to 74% and the pest or weed control at 140 g/ha [1, 8] was 75 to 84%. For the same compound, the pest or weed control at 35 g/ha [2, 9] was 0 to 29%, the pest or weed control at 70 g/ha [2, 9] was 0 to 29% and the pest or weed control at 140 g/ha [2, 9] was 0 to 29%. It also gave a pest or weed control at 35 g/ha [2, 10] of 0 to 29%, a pest or weed control at 70 g/ha [2, 10] of 45 to 59% and a pest or weed control at 140 g/ha [2, 10] of 75 to 84%. It also gave a pest or weed control at 35 g/ha [2, 11] of 0 to 29%, a pest or weed control at 70 g/ha [2, 11] of 0 to 29% and a pest or weed control at 140 g/ha [2, 11] of 0 to 29%. The pest or weed control at 35 g/ha [2, 12] was 0 to 29%, the pest or weed control at 70 g/ha [2, 12] was 0 to 29% and the pest or weed control at 140 g/ha [2, 12] was 45 to 59%. The pest or weed control at 35 g/ha [2, 13] was 0 to 29%, the pest or weed control at 70 g/ha [2, 13] was 0 to 29% and the pest or weed control at 140 g/ha [2, 13] was 0 to 29%. The pest or weed control at 35 g/ha [2, 14] was 0 to 29%, the pest or weed control at 70 g/ha [2, 14] was 0 to 29% and the pest or weed control at 140 g/ha [2, 14] was 0 to 29%. For the same compound, the melting point was greater than 300 °C.
For `COC(=O)c1nc(-c2ccc3cn[nH]c3c2)cc(N)c1Cl` [Compound 4.09], the pest or weed control at 35 g/ha [1, 3] was 0 to 29%, the pest or weed control at 70 g/ha [1, 3] was 0 to 29% and the pest or weed control at 140 g/ha [1, 3] was 0 to 29%. For the same compound, the pest or weed control at 35 g/ha [1, 4] was 0 to 29%, the pest or weed control at 70 g/ha [1, 4] was 45 to 59% and the pest or weed control at 140 g/ha [1, 4] was 85 to 94%. For the same compound, the pest or weed control at 35 g/ha [1, 5] was 0 to 29%, the pest or weed control at 70 g/ha [1, 5] was 0 to 29% and the pest or weed control at 140 g/ha [1, 5] was 60 to 74%. It also gave a pest or weed control at 35 g/ha [1, 6] of 45 to 59%, a pest or weed control at 70 g/ha [1, 6] of 75 to 84% and a pest or weed control at 140 g/ha [1, 6] of 85 to 94%. It also gave a pest or weed control at 35 g/ha [1, 7] of 0 to 29%, a pest or weed control at 70 g/ha [1, 7] of 0 to 29% and a pest or weed control at 140 g/ha [1, 7] of 0 to 29%. For the same compound, the pest or weed control at 35 g/ha [1, 8] was 0 to 29%, the pest or weed control at 70 g/ha [1, 8] was 30 to 44% and the pest or weed control at 140 g/ha [1, 8] was 45 to 59%. The pest or weed control at 35 g/ha [2, 9] was 0 to 29%, the pest or weed control at 70 g/ha [2, 9] was 0 to 29% and the pest or weed control at 140 g/ha [2, 9] was 0 to 29%. For the same compound, the pest or weed control at 35 g/ha [2, 10] was 0 to 29%, the pest or weed control at 70 g/ha [2, 10] was 0 to 29% and the pest or weed control at 140 g/ha [2, 10] was 0 to 29%. The pest or weed control at 35 g/ha [2, 11] was 0 to 29%, the pest or weed control at 70 g/ha [2, 11] was 0 to 29% and the pest or weed control at 140 g/ha [2, 11] was 0 to 29%. For the same compound, the pest or weed control at 35 g/ha [2, 12] was 0 to 29%, the pest or weed control at 70 g/ha [2, 12] was 0 to 29% and the pest or weed control at 140 g/ha [2, 12] was 0 to 29%. The pest or weed control at 35 g/ha [2, 13] was 0 to 29%, the pest or weed control at 70 g/ha [2, 13] was 0 to 29% and the pest or weed control at 140 g/ha [2, 13] was 0 to 29%. The pest or weed control at 35 g/ha [2, 14] was 0 to 29%, the pest or weed control at 70 g/ha [2, 14] was 0 to 29% and the pest or weed control at 140 g/ha [2, 14] was 0 to 29%. For the same compound, the melting point was 191 to 193 °C.
